Test results as given in patent US6127519A, “Calcitonin derivatives” (Tsumura & Co., priority 1990, dated 2000).
“And” between values parts separate entries of the source, which are not always exact repeats. Equal entries are not always repeated. Bridge positions count the residues as written; N and C are the ends. Peptide text beside a SMILES is read from it.

System: calcium concentration in the serum
Experiment: Test 1: reduction of calcium level in serum after tail vein administration to rats
Type: in vivo, rats of the Wistar strain
Details: 1 ml/kg tail vein, female Wistar rats
Experimental: Six-weeks-old female rats of the Wistar strain (each group consisting of 4 rats) were used as the test animal, and the peptides of the present invention obtained in the examples given hereinafter were tested at concentrations adjusted with a 1% aqueous solution of sodium acetate (pH 4,0) to which 0.1% bovine serum albumin (BSA) was added. The solution was adjusted to a concentration of 166 μg/ml 830 ng/ml or 83 ng/ml and administered with the tail vein in an amount of 1 ml/kg. The back of the rat was fixed and blood was collected just before the administration, and at predetermined intervals after the administration, from the neck vein. The amount of blood collected each time was 0.3 ml. The sampled blood was subjected to centrifugal separation at 3500 rpm for 20 minutes to separate serum and the calcium content in the separated serum was measured by TBA-380 (supplied by Toshiba) using a Wako calcium-measuring kit (o-cpc method), and the ratio of reduction of the calcium concentration in the serum was determined.

[1] = concentration 830 ng/ml, 0 hour (just before administration)
[2] = concentration 830 ng/ml, 1 hour
[3] = concentration 830 ng/ml, 2 hours
[4] = concentration 830 ng/ml, 4 hours
[5] = concentration 830 ng/ml, 6 hours

Structure (SMILES)	Serum calcium level as percent of pre-dose baseline (concentration 83 ng/ml, 0 hour (just before administration))	Serum calcium level as percent of pre-dose baseline (concentration 83 ng/ml, 1 hour)	Serum calcium level as percent of pre-dose baseline (concentration 83 ng/ml, 2 hours)	Serum calcium level as percent of pre-dose baseline (concentration 83 ng/ml, 4 hours)	Serum calcium level as percent of pre-dose baseline (concentration 83 ng/ml, 6 hours)	Serum calcium level as percent of pre-dose baseline [1]	Serum calcium level as percent of pre-dose baseline [2]	Serum calcium level as percent of pre-dose baseline [3]	Serum calcium level as percent of pre-dose baseline [4]	Serum calcium level as percent of pre-dose baseline [5]
CC[C@H](C)[C@H](NC(=O)[C@H](C)NC(=O)[C@@H](NC(=O)[C@H](CCC(N)=O)NC(=O)[C@@H]1CCCN1C(=O)[C@H](Cc1ccc(O)cc1)NC(=O)[C@@H](NC(=O)[C@H](CCC(N)=O)NC(=O)[C@H](CC(C)C)NC(=O)[C@H](CCCCN)NC(=O)[C@H](Cc1c[nH]cn1)NC(=O)[C@H](CC(C)C)NC(=O)[C@H](CCC(=O)O)NC(=O)[C@H](CCC(N)=O)NC(=O)[C@H](CO)NC(=O)[C@H](CC(C)C)NC(=O)[C@H](CCCCN)NC(=O)CNC(=O)[C@H](CC(C)C)NC(=O)[C@H](CCSC)NC(=O)[C@@H]1CSSC[C@H](N)C(=O)NCC(=O)N[C@@H](CC(N)=O)C(=O)N[C@@H](CC(C)C)C(=O)N[C@@H](CO)C(=O)N[C@@H]([C@@H](C)O)C(=O)N1)[C@@H](C)O)[C@@H](C)O)C(=O)NCC(=O)N[C@H](C(=O)NCC(=O)N[C@@H](C)C(=O)N1CCC[C@H]1C(N)=O)C(C)C [Peptide No. 1] (H-CGNLSTCMLGKLSQELHKLQTYPQTAIGVGAP-NH2; disulfide 1-7)	100.0%	74.3%	81.1%	86.9%	83.5%	100.0%	85.6% and 74.3% and 70.2%	81.6% and 68.4% and 64.4%	76.8% and 68.0% and 60.6%	88.5% and 84.8% and 78.3%
CC[C@H](C)[C@H](NC(=O)[C@H](C)NC(=O)[C@@H](NC(=O)[C@H](CCC(N)=O)NC(=O)[C@@H]1CCCN1C(=O)[C@H](Cc1ccc(O)cc1)NC(=O)[C@@H](NC(=O)[C@H](CCC(N)=O)NC(=O)[C@H](CCCCN)NC(=O)[C@H](Cc1c[nH]cn1)NC(=O)[C@H](CC(C)C)NC(=O)[C@H](CCC(=O)O)NC(=O)[C@H](CCC(N)=O)NC(=O)[C@H](CO)NC(=O)[C@H](CC(C)C)NC(=O)[C@H](CCCCN)NC(=O)CNC(=O)[C@H](CC(C)C)NC(=O)[C@H](CCSC)NC(=O)[C@@H]1CSSC[C@H](N)C(=O)NCC(=O)N[C@@H](CC(N)=O)C(=O)N[C@@H](CC(C)C)C(=O)N[C@@H](CO)C(=O)N[C@@H]([C@@H](C)O)C(=O)N1)[C@@H](C)O)[C@@H](C)O)C(=O)NCC(=O)N[C@H](C(=O)NCC(=O)N[C@@H](C)C(=O)N1CCC[C@H]1C(N)=O)C(C)C [Peptide No. 2] (H-CGNLSTCMLGKLSQELHKQTYPQTAIGVGAP-NH2; disulfide 1-7)	–	–	–	–	–	100.0%	86.7%	87.7%	92.8%	90.1%
CC[C@H](C)[C@H](NC(=O)[C@H](C)NC(=O)[C@@H](NC(=O)[C@H](CCC(N)=O)NC(=O)[C@@H]1CCCN1C(=O)[C@H](Cc1ccc(O)cc1)NC(=O)[C@H](CC(C)C)NC(=O)[C@H](CCCCN)NC(=O)[C@H](Cc1c[nH]cn1)NC(=O)[C@H](CC(C)C)NC(=O)[C@H](CCC(=O)O)NC(=O)[C@H](CCC(N)=O)NC(=O)[C@H](CO)NC(=O)[C@H](CC(C)C)NC(=O)[C@H](CCCCN)NC(=O)CNC(=O)[C@H](CC(C)C)NC(=O)[C@H](CCSC)NC(=O)[C@@H]1CSSC[C@H](N)C(=O)NCC(=O)N[C@@H](CC(N)=O)C(=O)N[C@@H](CC(C)C)C(=O)N[C@@H](CO)C(=O)N[C@@H]([C@@H](C)O)C(=O)N1)[C@@H](C)O)C(=O)NCC(=O)N[C@H](C(=O)NCC(=O)N[C@@H](C)C(=O)N1CCC[C@H]1C(N)=O)C(C)C [Peptide No. 3] (H-CGNLSTCMLGKLSQELHKLYPQTAIGVGAP-NH2; disulfide 1-7)	–	–	–	–	–	100.0%	97.0%	94.9%	86.4%	89.9%
CC[C@H](C)[C@H](NC(=O)[C@H](C)NC(=O)[C@@H](NC(=O)[C@H](CCC(N)=O)NC(=O)[C@@H]1CCCN1C(=O)[C@H](Cc1ccc(O)cc1)NC(=O)[C@@H](NC(=O)[C@H](CCC(N)=O)NC(=O)CNC(=O)[C@H](CCCCN)NC(=O)[C@H](Cc1c[nH]cn1)NC(=O)[C@H](CC(C)C)NC(=O)[C@H](CCC(=O)O)NC(=O)[C@H](CCC(N)=O)NC(=O)[C@H](CO)NC(=O)[C@H](CC(C)C)NC(=O)[C@H](CCCCN)NC(=O)CNC(=O)[C@H](CC(C)C)NC(=O)[C@H](CCSC)NC(=O)[C@@H]1CSSC[C@H](N)C(=O)NCC(=O)N[C@@H](CC(N)=O)C(=O)N[C@@H](CC(C)C)C(=O)N[C@@H](CO)C(=O)N[C@@H]([C@@H](C)O)C(=O)N1)[C@@H](C)O)[C@@H](C)O)C(=O)NCC(=O)N[C@H](C(=O)NCC(=O)N[C@@H](C)C(=O)N1CCC[C@H]1C(N)=O)C(C)C [Peptide No. 4] (H-CGNLSTCMLGKLSQELHKGQTYPQTAIGVGAP-NH2; disulfide 1-7)	–	–	–	–	–	100.0%	90.5%	92.0%	95.5%	86.7%
CC[C@H](C)[C@H](NC(=O)[C@H](C)NC(=O)[C@@H](NC(=O)[C@H](CCC(N)=O)NC(=O)[C@@H]1CCCN1C(=O)[C@H](Cc1ccc(O)cc1)NC(=O)[C@@H](NC(=O)[C@H](CCC(N)=O)NC(=O)[C@H](CC(C)C)NC(=O)[C@H](CCCCN)NC(=O)[C@H](Cc1c[nH]cn1)NC(=O)[C@H](CC(C)C)NC(=O)[C@H](CCC(=O)O)NC(=O)[C@H](CCC(N)=O)NC(=O)[C@H](CO)NC(=O)[C@H](CC(C)C)NC(=O)[C@H](CCCCN)NC(=O)CNC(=O)[C@H](CC(C)C)NC(=O)[C@H](CCSC)NC(=O)[C@@H]1CSSC[C@H](N)C(=O)NCC(=O)N[C@@H](CC(N)=O)C(=O)N[C@@H](CC(C)C)C(=O)N[C@@H](CO)C(=O)N[C@@H]([C@@H](C)O)C(=O)N1)[C@@H](C)O)[C@@H](C)O)C(=O)NCC(=O)N[C@@H](CO)C(=O)NCC(=O)N[C@H](C(=O)N1CCC[C@H]1C(N)=O)[C@@H](C)O [Peptide No. 5] (H-CGNLSTCMLGKLSQELHKLQTYPQTAIGSGTP-NH2; disulfide 1-7)	–	–	–	–	–	100.0%	76.4%	74.2%	70.7%	76.4%
CC[C@H](C)[C@H](NC(=O)[C@H](C)NC(=O)[C@@H](NC(=O)[C@H](CCC(N)=O)NC(=O)[C@@H]1CCCN1C(=O)[C@H](Cc1ccc(O)cc1)NC(=O)[C@@H](NC(=O)[C@H](CCC(N)=O)NC(=O)[C@H](CCCCN)NC(=O)[C@H](Cc1c[nH]cn1)NC(=O)[C@H](CC(C)C)NC(=O)[C@H](CCC(=O)O)NC(=O)[C@H](CCC(N)=O)NC(=O)[C@H](CO)NC(=O)[C@H](CC(C)C)NC(=O)[C@H](CCCCN)NC(=O)CNC(=O)[C@H](CC(C)C)NC(=O)[C@H](CCSC)NC(=O)[C@@H]1CSSC[C@H](N)C(=O)NCC(=O)N[C@@H](CC(N)=O)C(=O)N[C@@H](CC(C)C)C(=O)N[C@@H](CO)C(=O)N[C@@H]([C@@H](C)O)C(=O)N1)[C@@H](C)O)[C@@H](C)O)C(=O)NCC(=O)N[C@@H](CO)C(=O)NCC(=O)N[C@H](C(=O)N1CCC[C@H]1C(N)=O)[C@@H](C)O [Peptide No. 6] (H-CGNLSTCMLGKLSQELHKQTYPQTAIGSGTP-NH2; disulfide 1-7)	–	–	–	–	–	100.0%	73.1%	68.1%	74.6%	92.1%
CC[C@H](C)[C@H](NC(=O)[C@H](C)NC(=O)[C@@H](NC(=O)[C@H](CCC(N)=O)NC(=O)[C@@H]1CCCN1C(=O)[C@H](Cc1ccc(O)cc1)NC(=O)[C@H](CC(C)C)NC(=O)[C@H](CCCCN)NC(=O)[C@H](Cc1c[nH]cn1)NC(=O)[C@H](CC(C)C)NC(=O)[C@H](CCC(=O)O)NC(=O)[C@H](CCC(N)=O)NC(=O)[C@H](CO)NC(=O)[C@H](CC(C)C)NC(=O)[C@H](CCCCN)NC(=O)CNC(=O)[C@H](CC(C)C)NC(=O)[C@H](CCSC)NC(=O)[C@@H]1CSSC[C@H](N)C(=O)NCC(=O)N[C@@H](CC(N)=O)C(=O)N[C@@H](CC(C)C)C(=O)N[C@@H](CO)C(=O)N[C@@H]([C@@H](C)O)C(=O)N1)[C@@H](C)O)C(=O)NCC(=O)N[C@@H](CO)C(=O)NCC(=O)N[C@H](C(=O)N1CCC[C@H]1C(N)=O)[C@@H](C)O [Peptide No. 7] (H-CGNLSTCMLGKLSQELHKLYPQTAIGSGTP-NH2; disulfide 1-7)	–	–	–	–	–	100.0%	81.9%	91.7%	97.4%	100.0%
